Experimental data: patent US6103883A (priority 1999, dated 2000)

Target: T1, verotoxin binding to Gb3 (Enterobacteria phage H19B, UniProt P69179)
Settings: competition with radiolabelled verotoxin 1; FIG. 5C

Row | Compound | inhibition of verotoxin binding to Gb3
1 | CN(C)C(CO[C@@H]1O[C@H](CO)[C@@H](O[C@@H]2O[C@H](CO)[C@H](O[C@H]3O[C@H](CO)[C@H](O)[C@H](O)[C@H]3O)[C@H](O)[C@H]2O)[C@H](O)[C@H]1O)C(O)C(=O)NC12CC3CC(CC(C3)C1)C2 (stereo partly shown) [Compound A] | effective inhibition
2 | CN(C)C(CO[C@@H]1O[C@H](CO)[C@@H](O[C@@H]2O[C@H](CO)[C@H](O[C@H]3O[C@H](CO)[C@H](O)[C@H](O)[C@H]3O)[C@H](O)[C@H]2O)[C@H](O)[C@H]1O)C(O)C(=O)Nc1c2c(nc3ccccc13)CCCC2 (stereo partly shown) [Compound B] | effective inhibition
3 | OC[C@H]1O[C@H](O[C@@H]2[C@H](O)[C@@H](O)[C@H](O[C@H]3[C@H](O)[C@@H](O)C(O)O[C@@H]3CO)O[C@@H]2CO)[C@H](O)[C@@H](O)[C@H]1O (stereo partly shown) [Gb3 -sugar, globotriaose, reference compound] | virtually no inhibition

Target: T1, verotoxin binding to Gb3
Settings: spectrophotometric detection; FIG. 6B

Row | Compound | inhibition of binding of verotoxin to Gb3
4 | O=C(CC12CC3CC(CC(C3)C1)C2)NC(CO[C@@H]1O[C@H](CO)[C@@H](O[C@@H]2O[C@H](CO)[C@H](O[C@H]3O[C@H](CO)[C@H](O)[C@H](O)[C@H]3O)[C@H](O)[C@H]2O)[C@H](O)[C@H]1O)C(O)C(=O)O (stereo partly shown) [Compound A1] | do not appear to be effective inhibitors
5 | CCCCCCCCCCCCC/C=C/[C@@H](O)[C@H](CO[C@@H]1O[C@H](CO)[C@@H](O[C@@H]2O[C@H](CO)[C@H](O[C@H]3O[C@H](CO)[C@H](O)[C@H](O)[C@H]3O)[C@H](O)[C@H]2O)[C@H](O)[C@H]1O)NC(=O)CC12CC3CC(CC(C3)C1)C2 [Compound A3] | effective water-soluble inhibitor
6 | CCCCCCCCCCCCC/C=C/[C@@H](O)[C@H](CO[C@@H]1O[C@H](CO)[C@H](O)[C@H](O)[C@H]1O)NC(=O)CC12CC3CC(CC(C3)C1)C2 [Compound B1] | do not appear to be effective inhibitors
7 | O=C(CC12CC3CC(CC(C3)C1)C2)NC(CO[C@@H]1O[C@H](CO)[C@H](O)[C@H](O)[C@H]1O)C(O)C(=O)O (stereo partly shown) [Compound B2] | do not appear to be effective inhibitors
